Data taken from ChEMBL document CHEMBL3886818, “Pyrazole carboxamides as Janus kinase inhibitors” (2016).

Key:
[1] = biological target: Tyrosine-protein kinase JAK1 (Homo sapiens, UniProt P23458); assay: Subsequent reagent additions employed an Agilent Bravo.
[2] = biological target: Tyrosine-protein kinase JAK2 (Homo sapiens, UniProt O60674)
Tyrosine-protein kinase JAK2, sequence (O60674 whole entry): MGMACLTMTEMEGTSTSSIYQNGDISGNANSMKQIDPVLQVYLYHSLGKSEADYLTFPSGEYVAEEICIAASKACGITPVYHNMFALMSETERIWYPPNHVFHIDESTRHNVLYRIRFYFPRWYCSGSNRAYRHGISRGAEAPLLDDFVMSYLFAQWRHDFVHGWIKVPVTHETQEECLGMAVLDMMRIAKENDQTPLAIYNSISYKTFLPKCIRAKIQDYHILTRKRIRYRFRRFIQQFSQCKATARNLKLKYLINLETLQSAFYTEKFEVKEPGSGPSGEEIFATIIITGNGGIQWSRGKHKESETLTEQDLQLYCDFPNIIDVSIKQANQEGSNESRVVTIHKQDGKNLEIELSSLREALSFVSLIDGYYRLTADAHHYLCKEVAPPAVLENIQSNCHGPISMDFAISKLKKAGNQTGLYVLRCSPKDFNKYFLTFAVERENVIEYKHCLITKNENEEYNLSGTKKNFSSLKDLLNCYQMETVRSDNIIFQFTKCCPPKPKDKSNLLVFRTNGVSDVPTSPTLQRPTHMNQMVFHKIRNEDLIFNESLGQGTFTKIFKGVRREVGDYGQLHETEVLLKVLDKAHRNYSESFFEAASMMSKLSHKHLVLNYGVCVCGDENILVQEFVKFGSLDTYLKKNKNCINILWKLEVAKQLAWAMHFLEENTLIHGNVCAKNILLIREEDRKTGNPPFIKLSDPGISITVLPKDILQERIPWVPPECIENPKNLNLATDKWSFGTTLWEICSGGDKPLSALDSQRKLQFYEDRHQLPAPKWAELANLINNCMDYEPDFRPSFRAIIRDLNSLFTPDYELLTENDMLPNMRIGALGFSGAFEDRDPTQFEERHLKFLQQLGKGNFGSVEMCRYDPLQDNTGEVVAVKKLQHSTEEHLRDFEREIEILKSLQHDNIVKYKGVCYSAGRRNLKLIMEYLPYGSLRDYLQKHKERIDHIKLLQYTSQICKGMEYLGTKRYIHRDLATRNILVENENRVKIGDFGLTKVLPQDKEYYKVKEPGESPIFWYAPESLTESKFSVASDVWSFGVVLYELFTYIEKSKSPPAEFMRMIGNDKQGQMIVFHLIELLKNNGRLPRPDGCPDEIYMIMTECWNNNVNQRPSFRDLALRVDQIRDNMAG

Tyrosine-protein kinase JAK1, sequence (P23458 whole entry): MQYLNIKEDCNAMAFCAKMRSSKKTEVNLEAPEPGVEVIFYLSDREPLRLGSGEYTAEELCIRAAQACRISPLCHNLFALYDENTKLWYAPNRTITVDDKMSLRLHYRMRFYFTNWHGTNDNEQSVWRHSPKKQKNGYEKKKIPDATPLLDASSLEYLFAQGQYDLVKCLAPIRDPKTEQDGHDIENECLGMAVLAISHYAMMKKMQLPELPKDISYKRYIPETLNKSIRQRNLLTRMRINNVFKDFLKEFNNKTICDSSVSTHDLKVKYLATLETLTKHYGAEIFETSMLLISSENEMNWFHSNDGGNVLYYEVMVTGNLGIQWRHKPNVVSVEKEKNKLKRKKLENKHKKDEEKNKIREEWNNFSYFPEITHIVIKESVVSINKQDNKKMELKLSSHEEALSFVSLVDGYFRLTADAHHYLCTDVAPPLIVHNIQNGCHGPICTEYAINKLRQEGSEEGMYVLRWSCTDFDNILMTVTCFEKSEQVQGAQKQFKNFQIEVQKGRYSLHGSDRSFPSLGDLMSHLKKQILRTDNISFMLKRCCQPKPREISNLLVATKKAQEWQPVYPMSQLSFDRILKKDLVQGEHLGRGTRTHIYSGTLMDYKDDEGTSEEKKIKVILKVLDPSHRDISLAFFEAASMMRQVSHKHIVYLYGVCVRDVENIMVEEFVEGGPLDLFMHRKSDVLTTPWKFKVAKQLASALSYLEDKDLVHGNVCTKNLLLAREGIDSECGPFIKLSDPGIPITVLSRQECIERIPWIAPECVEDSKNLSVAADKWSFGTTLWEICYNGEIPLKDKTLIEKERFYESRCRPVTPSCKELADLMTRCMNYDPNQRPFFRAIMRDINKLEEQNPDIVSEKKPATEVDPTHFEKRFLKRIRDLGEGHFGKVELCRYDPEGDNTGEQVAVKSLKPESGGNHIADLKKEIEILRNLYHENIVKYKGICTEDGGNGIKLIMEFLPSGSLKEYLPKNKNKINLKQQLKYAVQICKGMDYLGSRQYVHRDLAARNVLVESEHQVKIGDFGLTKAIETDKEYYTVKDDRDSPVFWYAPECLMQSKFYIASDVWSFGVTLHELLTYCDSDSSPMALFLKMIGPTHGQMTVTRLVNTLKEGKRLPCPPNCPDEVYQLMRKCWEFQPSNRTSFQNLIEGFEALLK

IC50 [1]: 0.2 nM | IC50 [2]: 1 nM
Compound: N#C[C@H]1CCOC[C@@H]1n1cc(C(N)=O)c(Nc2ccc(OC(F)(F)F)cc2)n1 (single isomer, unassigned)
